According to patent US11980620B2, “Compounds and methods for treatment of Diamond Blackfan anemia” (THE CHILDREN'S MEDICAL CENTER CORPORATION, priority 2017, dated 2024):

Assays:
LC3 = test: Autophagic marker LC3 levels in liver of treated mice; type: in vivo, mouse
Description: FIGS. 11A-11C show effect of SMER28 on CD34+ progenitors. (FIG. 11A) Protein levels of LC3-I and LC3-II in control and SMER28 treated mice. GADPH is used as a loading control. […] (FIG. 11C) Atg5 morpholino treatment of rps29^+/− zebrafish.
In following evaluation, the effects of administration of SMER28 to mice with irradiation-induced anemia, a model that enables dose-finding and initial testing of safety and bioactivity. […] To assess bioactivity, we measured the levels of autophagic marker LC3 in treated animals. […] (FIG. 10C). We tested the effect of this compound on human cells by treating NSG mice transplanted with human CD34-5F and CB cells. SMER28 increased the output of GlyA^+ RBCs from DBA CD34-5F cells (FIG. 10D).

DBA CD34-5F cells = test: NSG mice transplanted with DBA CD34-5F progenitors, erythroid proportion of human graft; type: in vivo
Experimental: (FIG. 10A) SMER28 rescues RBC output in rps29^+/− zebrafish embryos. The level of hemoglobin in the yolk sac was visualized 40hpf with benzidine staining. Images are representative of the proportion of embryos indicated (of total counted). (FIG. 10B) Quantitation of SMER28 rescue for a range of 0.1-1 μM, with embryos grouped by high, medium, and low levels of hemoglobin staining. (FIG. 10C) Peripheral blood (PB) RBC counts and hematocrit in mice with irradiation-induced anemia. Mice were treated with the PEG400-based vehicle containing DMSO (VEH) (n=11), 1 mg/kg Dex (sodium-phosphate) (n=13), or 10 mg/kg SMER28 (n=9) for 3 weeks, bled, and assessed. Data are combined from 3 independent experiments. (FIG. 10D) Erythroid cells as proportion of the human graft in mice transplanted with DBA CD34-5F progenitors, and treated as in (FIG. 1c). (FIG. 10E) Levels of human engraftment in NSG mouse bone marrow (BM) transplanted with CB CD34^+ cells. Mice were treated with DMSO plus vehicle (VEH) (n=10), 1 mg/kg Dex (sodium-phosphate) (n=6), or 2 mg/kg SMER28 (n=11) for 4 weeks. (FIG. 10F) The proportion of erythroid, myeloid, and lymphoid (B cells) lineages within the human graft in vehicle- and SMER28-treated mice transplanted with CB CD34^+ cells. Only the effect on the erythroid lineage was significant. Data in FIGS. 10E-10G are pooled from 2 independent experiments. […]

C=CCNc1ncnc2ccc(Br)cc12 [SMER28, 6-Bromo-N-2-propenyl-4-quinazolinam]
LC3-I and LC3-II levels in the liver (LC3): modestly increased
output of GlyA+ RBCs from DBA CD34-5F cells (DBA CD34-5F cells): increased
